Counter-ions that a name gives are not always drawn.
Key:
[1] = test system: Na^+ transport rates by cystic fibrosis airway epithelia; test: Ussing chamber bioassay of Na+ transport (short circuit current) in freshly excised human cystic fibrosis airway epithelia; format: cell-based
Excerpt: Freshly excised human cystic fibrosis airway […] used to assay bioactive amiloride in solution. Freshly excised tissues is obtained from the Operating Room at The University of North Carolina Hospitals as previously described. R. Boucher, M. Stutts, M. Knowles, L. Cantley, and J. Gatzy, Na+ transport in cystic fibrosis respiratory epithelia. Abnormal basal rate and response to adenylate cyclase activation. J. Clin. Invest. 78, 1245-1252 (1986). The tissue preparation is mounted in a minature Ussing chamber that has 6 ml of solution bathing each (mucosal; basolateral) surface of the preparation. The solution is a Krebs-Ringer bicarbonate solution which approximates the ionic composition of plasma. This solution is warmed (37°) and circulated with a gas lift (95% oxygen, 5% CO2) system. Mixing time in this chamber has been previously measured by calibration with dyes (blue dextran) and is five seconds or less. The measurement of sodium transport rates is performed using a voltage clamp that is interfaced to the tissue preparation by pairs of potential sensing electrodes and current passing electrodes. The current required to null the transepithelial potential difference to zero is the short circuit current, which in human airway tissue is an accurate index of sodium transport rates. See R. Boucher et al., supra. […] This experiment was conducted as described above. […]

[2] = Aerosol size distribution (Andersen impactor); format: physicochemical; conditions: 60 Lpm
Experimental: FIG. 6 is a drawing of the experimental apparatus used in these studies. For the SpinhalerTM tests, lactose was used as a flow aid to dispense amiloride from the capsules. Before use, the lactose was not micronized, but was shaken through a 400 mesh sieve so that all lactose particles used were smaller than 37 μm. Amiloride was then mixed with the lactose in a 1:1 ratio and the material was […] through the 400 mesh sieve to break apart any agglomerates. Then 58 mg of the […] mixture of amiloride and lactose was placed in capsule with pre-drilled holes and loaded into the SpinhalerTM. Air at 60 liters per minute (Lpm) flowed in succession through the aerosol generator 60 (a SpinhalerTM), an impactor 10 as described in connection with FIGS. 1-4 above, a glass "throat" 61, and a plastic "distal pharynx" 62. Within the distal pharynx an isokinetic sample at 28.3 Lpm flowed through a nozzle 63 and into an Andersen impactor 64. The remaining 31.7 Lpm of the original 60 Lpm was drawn off through a bypass line 65 that led to a filter 66, a rotameter 67, and to a vacuum (not illustrated). Gas that left the Andersen impactor flowed through a filter 68 to a second rotameter 69 to vacuum. To conduct a test, vacuum was applied simultaneously to both the Andersen impactor and the bypass lines. Air flow at 60 Lpm was maintained for four seconds to simulate an inspiration; six inspirations were used for each capsule of drug tested. […] This amiloride was then packaged in an MDI with Freon propellants (trichlorofluoromethane and dichlorodifluoromethane) and a surfactant (sorbitan trioleate), added to break up droplets or aggregates of solid particles. A NebuhalerTM spacer 27 cm long, (see Newman, 39 Thorax 935 (1984)), was attached to the MDI to allow evaporation of the propellant and to remove larger particles by sedimentation. Prior to each release of drug from the MDI, the canister was shaken vigorously to achieve homogeneity. […] Leakage of some liquid from the MDI canisters between the filling time and the actual usage would have increased the concentration of amiloride without affecting internal canister pressure. […] The fractional efficiency of the impactor was determined by comparing the mass of amiloride collected on each stage of the Andersen impactor with and without the impactor in place. […] The components analyzed for amiloride included the SpinhalerTM and its used capsule, the NebuhalerTM spacer when used, the impactor when used, the glass throat, the distal pharynx, and the sidearm filter, plus the entry nozzle, six individual plates, and final filter of the Andersen impactor. Washes from each of these components were then analyzed for amiloride. […]

[3] = Fate/dose of aerosolized amiloride (respirable, oropharyngeal, systemic) from Spinhaler or MDI in throat/Andersen impactor apparatus
Experimental: The present invention was tested using two devices that generate dry particle aerosols, the Spinhaler™ from Fisons, Inc., See Bell, J. Pharm. Sci. 60, 1559 (1971); Cox, Brit. Med. J. 2, 634 (1969), and the metered-dose inhaler (MDI). The Spinhaler™ consists of a rotor that holds a gelatin capsule containing the dry amiloride powder. After the capsule is pierced, the patient inhales through the mouthpiece causing the rotor to spin and vibrate at a high speed, dispensing and dispersing the drug. The MDI consists of a pressurized canister containing the drug, the propellant, and a surfactant. When activated, the MDI spray disperses the drug within large droplets of propellant into a spacer. Evaporation of the propellant and sedimentation of the larger particles yield dry drug that is inhaled by the patient.
FIG. 6 is a drawing of the experimental apparatus used in these studies. For the Spinhaler™ tests, lactose was used as a flow aid to dispense amiloride from the capsules. Before use, the lactose was not micronized, but was shaken through a 400 mesh sieve so that all lactose particles used were smaller than 37 μm. Amiloride was then mixed with the lactose in a 1:1 ratio and the material was reshaken through the 400 mesh sieve to break apart any agglomerates. Then 58 mg of the resieved mixture of amiloride and lactose was placed in capsule with pre-drilled holes and loaded into the Spinhaler™. Air at 60 liters per minute (Lpm) flowed in succession through the aerosol generator 60 (a Spinhaler™), an impactor 10 as described in connection with FIGS. 1-4 above, a glass "throat" 61, and a plastic "distal pharynx" 62. Within the distal pharynx an isokinetic sample at 28.3 Lpm flowed through a nozzle 63 and into an Andersen impactor 64. The remaining 31.7 Lpm of the original 60 Lpm was drawn off through a bypass line 65 that led to a filter 66, a rotameter 67, and to a vacuum (not illustrated). Gas that left the Andersen impactor flowed through a filter 68 to a second rotameter 69 to vacuum. To conduct a test, vacuum was applied simultaneously to both the Andersen impactor and the bypass lines. Air flow at 60 Lpm was maintained for four seconds to simulate an inspiration; six inspirations were used for each capsule of drug tested.
Amiloride used with the MDI was first milled until essentially all particles were smaller than 2.6 μm in diameter as determined using an optical microscope. This amiloride was then packaged in an MDI with Freon propellants (trichlorofluoromethane and dichlorodifluoromethane) and a surfactant (sorbitan trioleate), added to break up droplets or aggregates of solid particles. A Nebuhaler™ spacer 27 cm long, (see Newman, 39 Thorax 935 (1984)), was attached to the MDI to allow evaporation of the propellant and to remove larger particles by sedimentation. Prior to each release of drug from the MDI, the canister was shaken vigorously to achieve homogeneity. In each test, the MDI aerosol was dispersed into the spacer via a 50 μl metering valve designed to deliver 1 mg amiloride per puff; however, the actual delivery was closer to 3 mg/puff as determined by spectrophotometric analysis of all amiloride collected as discussed below. Leakage of some liquid from the MDI canisters between the filling time and the actual usage would have increased the concentration of amiloride without affecting internal canister pressure. Following the dispersion and a one second delay, vacuum was applied to both the Andersen impactor and bypass lines and maintained for four seconds. This procedure was repeated for a total of six aerosol puffs from the MDI for each test The MDI tests, like the Spinhaler™ tests, used a total flow of 60 Lpm; 28.3 to the Andersen impactor and […] through the bypass line.
Tests were conducted with the MDI and spacer both with and without the impactor. […]

[4] = in vivo
cystic fibrosis = conditions: liquid aerosol; Knowles, N. Engl. J. Med. (1990); cited from earlier work
[5] = test system: luminal membrane of airway epithelia; conditions: applied to the luminal membrane of airway epithelia; cited from earlier work

N=C(N)NC(=O)c1nc(Cl)c(N)nc1N [amiloride hydrochloride]
time to complete inhibition of ISC (Na^+ transport) ([1]; Krebs-Ringer bicarbonate, 37°, human CF airway epithelia, dry powder particle size about 1 μm): about sixty | timed release effect (dissolution of solid particles) ([1]; respirable particles ~1 μm, aqueous solution approximating the ionic strength of plasma): dissolved slowly over time

N=C(N)NC(=O)c1nc(Cl)c(N)nc1N [amiloride]
mass median diameter (mmd) ([2]; MDI with spacer and impactor): about 3 um | mass median diameter (mmd) ([2]; MDI with spacer, no impactor): about 6 um | mass median diameter (mmd) ([2]; Spinhaler alone): > 10 um | mass median diameter (mmd) ([2]; Spinhaler with impactor): about 4 um | oropharyngeal deposition, fraction of generated amiloride [3]: 1.6% | systemic dose relative to maximum [3]: ≤ 20 mg/day | total systemic daily dose [3]: 16.7 mg | oropharyngeal deposition (in words) ([3]; MDI or Spinhaler without spacer or impactor): high | systemic dose relative to maximum (in words) ([3]; MDI with spacer alone, 12 mg/day respirable): somewhat higher than the maximum | oropharyngeal dose (in words) ([3]; Spinhaler alone): far too high | systemic dose (in words) ([3]; Spinhaler alone): excessive | oropharyngeal deposition (in words) ([3]; with spacer or impactor, most particles larger than about 5 μm removed): decreases substantially | maximum systemic dose [4]: 20 mg daily | optimal respirable dose [4]: 8 to 12 mg daily | clinical benefit (cystic fibrosis): confirmed clinical benefit | inhibition of Na^+ and water absorption [5]: inhibit Na^+ and water absorption

Source: patent US5304125A, “Apparatus for administering solid particulate aerosols to the lungs” (priority 1993, dated 1994)
